Data taken from article PMC8376931, “Structure activity relationships and the binding mode of quinolinone-pyrimidine hybrids as reversal agents of multidrug resistance mediated by P-gp” (Scientific Reports, 2021).
Where two headings read alike, the source gives them in different places.

What was measured:
P-gp [1] = target: T1, P-gp (Homo sapiens, UniProt P08183); settings: 1 h
Protocol: (§1) The intracellular accumulation of the fluorescent probes, Dox and Rho123, was determined by monitoring its fluorescence intensity using flow cytometry (96-well plate format), as previously reported. The inhibition on the outward transport of these P-gp substrates results in an increased […] fluorescence intensity (MFI). […] Those compounds showing inhibition on P-gp at the maximum tested concentration were further evaluated at serial dilutions to determinate their MECs. […] The plates were then incubated in a 5% CO2 incubator for 1 h at 37 °C. Afterwards, 5 μM Dox was added to each well. The other fluorescent specific substrate of P-gp, Rho123, however, was added at 500 ng/mL to additionally measure the ability of the most promising compounds to block its efflux. Subsequently, cells from both assays were washed twice with cold PBS, and 15,000 events from each sample were analyzed to determine the cell-associated fluorescence. Dead cells were eliminated by means of forward- and side-scatter parameters. […] The blocking of the P-gp transport function was evaluated by the parameter FIR, calculated as the ratio of the MFI of Dox or Rho123 with the addition of the likely inhibitor to the MFI of Dox or Rho123 alone.

K562 cells = test: Doxorubicin intracellular accumulation assay (flow cytometry) in K562; type: cell-based; parameters: key: MFI with inhibitor / MFI of Dox alone; settings: 5 μM Dox
Protocol: as §1

SphK1 = settings: previously found; cited from earlier work
SphK2 = settings: previously found; cited from earlier work
[2] = MTT cytotoxicity assay in Lucena 1; type: cell-based; settings: human, Lucena 1 cells, read-out: IC50 (cytotoxicity) against Lucena 1
Protocol: (§2) Then 0.5 mg/mL MTT in PBS was added. After additional incubation for 4 h, the formazan crystals obtained were dissolved in DMSO and the absorbance at 595 nm was read on an iMark micro-plate reader (Bio-Rad, USA). IC50 values for cytotoxicity were then calculated as reported[50] using nonlinear regression by GraphPad Prism 7 (Graphpad Software, Inc., San Diego, CA, USA, www.graphpad.com).
(§3) The cells were incubated at 37 °C at 5% CO2 for 48 h and the same protocol described above was followed. IC50 values of Dox were then obtained.

[3] = MTT cytotoxicity assay in K562; type: cell-based; settings: human, K562 cells, read-out: IC50 (cytotoxicity) against K562
Protocol: as §2, §3

P-gp [4] = target: T1, P-gp
Protocol: The intracellular accumulation of the fluorescent probes, Dox and Rho123, was determined by monitoring its fluorescence intensity using flow cytometry (96-well plate format), as previously reported. The inhibition on the outward transport of these P-gp substrates results in an increased […] fluorescence intensity (MFI). […] The plates were then incubated in a 5% CO2 incubator for 1 h at 37 °C. Afterwards, 5 μM Dox was added to each well. The other fluorescent specific substrate of P-gp, Rho123, however, was added at 500 ng/mL to additionally measure the ability of the most promising compounds to block its efflux. Subsequently, cells from both assays were washed twice with cold PBS, and 15,000 events from each sample were analyzed to determine the cell-associated fluorescence. Dead cells were eliminated by means of forward- and side-scatter parameters. […] The blocking of the P-gp transport function was evaluated by the parameter FIR, calculated as the ratio of the MFI of Dox or Rho123 with the addition of the likely inhibitor to the MFI of Dox or Rho123 alone.

T1 sequence (P08183 whole entry): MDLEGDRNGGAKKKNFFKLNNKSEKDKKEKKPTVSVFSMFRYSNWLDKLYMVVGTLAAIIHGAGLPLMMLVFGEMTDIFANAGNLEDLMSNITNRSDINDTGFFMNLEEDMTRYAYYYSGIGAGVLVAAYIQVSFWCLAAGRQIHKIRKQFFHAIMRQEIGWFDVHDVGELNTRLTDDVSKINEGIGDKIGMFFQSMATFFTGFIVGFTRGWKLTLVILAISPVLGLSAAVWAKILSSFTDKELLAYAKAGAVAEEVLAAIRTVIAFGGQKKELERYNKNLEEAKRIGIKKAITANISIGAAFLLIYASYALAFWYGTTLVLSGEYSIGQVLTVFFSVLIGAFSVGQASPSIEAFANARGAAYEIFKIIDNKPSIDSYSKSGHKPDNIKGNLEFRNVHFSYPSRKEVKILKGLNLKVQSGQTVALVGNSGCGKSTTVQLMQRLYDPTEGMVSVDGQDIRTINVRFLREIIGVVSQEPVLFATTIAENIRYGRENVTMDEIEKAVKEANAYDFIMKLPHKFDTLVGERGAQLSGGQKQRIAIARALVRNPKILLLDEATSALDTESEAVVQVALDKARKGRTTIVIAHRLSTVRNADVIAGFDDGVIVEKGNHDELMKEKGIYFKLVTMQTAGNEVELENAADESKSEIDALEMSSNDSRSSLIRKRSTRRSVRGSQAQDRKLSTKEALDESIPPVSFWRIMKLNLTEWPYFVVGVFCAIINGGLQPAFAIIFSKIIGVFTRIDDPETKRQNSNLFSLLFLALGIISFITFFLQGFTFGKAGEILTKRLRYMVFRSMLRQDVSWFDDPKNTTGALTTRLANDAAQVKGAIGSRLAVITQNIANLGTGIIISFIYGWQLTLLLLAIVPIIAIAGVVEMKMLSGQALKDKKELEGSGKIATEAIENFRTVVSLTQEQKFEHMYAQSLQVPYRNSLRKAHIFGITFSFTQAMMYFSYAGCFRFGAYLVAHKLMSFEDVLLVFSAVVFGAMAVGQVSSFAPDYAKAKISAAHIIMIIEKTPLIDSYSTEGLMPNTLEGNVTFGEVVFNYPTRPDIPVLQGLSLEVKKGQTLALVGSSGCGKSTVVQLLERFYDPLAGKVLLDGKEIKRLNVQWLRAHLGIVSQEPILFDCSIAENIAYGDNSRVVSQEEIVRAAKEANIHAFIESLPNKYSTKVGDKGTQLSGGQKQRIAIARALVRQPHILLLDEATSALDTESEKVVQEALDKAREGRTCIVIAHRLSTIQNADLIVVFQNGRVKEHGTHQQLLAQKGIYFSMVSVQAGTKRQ

Compound | minimum effective concentration (MEC), Dox accumulation (P-gp [1]) [µM] | FIR Lucena 1 (P-gp [1]; 5 µM) | FIR Lucena 1 (P-gp [1]; 10 µM) | FIR Lucena 1 (P-gp [1]; 20 µM) | FIR K562 (K562 cells; compound 20 µM) | FIR Lucena 1 (P-gp [1]; 1.25 µM) | FIR Lucena 1 (P-gp [1]; 2.5 µM) | FIR Lucena 1 (P-gp [1]; 0.31 µM) | FIR Lucena 1 (P-gp [1]; 0.62 µM) | FIR K562 (K562 cells; compound 5 µM) | FIR K562 (K562 cells; compound 10 µM) | IC50 against SphK1 (SphK1) | IC50 against SphK2 (SphK2) | IC50 at 48 h [2] [µM] | IC50 at 48 h [3] [µM] | Rho123 fluorescence intensity, fold lower in Lucena 1 with respect to K562 (P-gp [4]) [fold]
CC(=O)c1ccc(Nc2nccc(-c3ccc4ccccc4c3)n2)cc1 [Compound 3] | 10 | 1.06 ± 0.05 | 1.24 ± 0.02 | 1.70 ± 0.22 | 0.98 ± 0.07 | – | – | – | – | – | – | – | – | – | – | –
O=c1[nH]c2ccccc2cc1CNc1ccc(Nc2nccc(-c3ccc(Cl)cc3)n2)cc1 [Compound 4a] | 20 | – | 1.03 ± 0.01 | 1.21 ± 0.04 | 0.89 ± 0.03 | – | – | – | – | – | – | – | – | – | – | –
COc1ccc2[nH]c(=O)c(CNc3ccc(Nc4nccc(-c5ccc(Cl)cc5)n4)cc3)cc2c1 [Compound 4b] | 2.5 | 1.20 ± 0.06 | 1.23 ± 0.08 | 1.29 ± 0.08 | 0.90 ± 0.03 | 1.10 ± 0.13 | 1.20 ± 0.06 | – | – | – | – | – | – | – | – | –
COc1cc2cc(CNc3ccc(Nc4nccc(-c5ccc(Cl)cc5)n4)cc3)c(=O)[nH]c2cc1OC [Compound 4c] | 0.62 | 1.32 ± 0.09 | 1.28 ± 0.07 | 1.39 ± 0.07 | 0.93 ± 0.02 | 1.24 ± 0.08 | 1.31 ± 0.11 | 1.03 ± 0.01 | 1.11 ± 0.03 | – | – | – | – | – | – | –
O=c1[nH]c2ccccc2cc1CNc1ccc(Nc2nccc(-c3ccc4ccccc4c3)n2)cc1 [Compound 5a] | 2.50 | 1.06 ± 0.01 | 1.10 ± 0.02 | 1.24 ± 0.07 | 0.86 ± 0.02 | 0.95 ± 0.05 | 1.05 ± 0.01 | – | – | – | – | – | – | – | – | –
COc1ccc2[nH]c(=O)c(CNc3ccc(Nc4nccc(-c5ccc6ccccc6c5)n4)cc3)cc2c1 [Compound 5b] | 0.62 | 1.31 ± 0.08 | 1.25 ± 0.07 | 1.36 ± 0.08 | 0.96 ± 0.02 | 1.21 ± 0.07 | 1.29 ± 0.08 | 1.07 ± 0.03 | 1.16 ± 0.07 | – | – | – | – | – | – | –
Clc1ccc(-c2ccnc(N3CCNCC3)n2)cc1 [Compound 6] | – | 1.18 ± 0.03 | 1.38 ± 0.08 | 1.65 ± 0.12 | 1.20 ± 0.02 | 1.09 ± 0.06 | 1.18 ± 0.04 | – | – | 1.09 ± 0.04 | 1.19 ± 0.02 | – | – | – | – | –
O=c1[nH]c2ccccc2cc1CN1CCN(c2nccc(-c3ccc(Cl)cc3)n2)CC1 [Compound 6a] | 5 | 1.15 ± 0.05 | 1.30 ± 0.05 | 1.40 ± 0.05 | 0.92 ± 0.04 | – | 1.06 ± 0.04 | – | – | – | – | – | – | – | – | –
COc1ccc2[nH]c(=O)c(CN3CCN(c4nccc(-c5ccc(Cl)cc5)n4)CC3)cc2c1 [Compound 6b] | 2.5 | 1.32 ± 0.09 | 1.44 ± 0.13 | 1.55 ± 0.07 | 0.94 ± 0.10 | 1.01 ± 0.03 | 1.15 ± 0.05 | – | – | – | – | – | – | – | – | –
COc1cc2cc(CN3CCN(c4nccc(-c5ccc(Cl)cc5)n4)CC3)c(=O)[nH]c2cc1OC [Compound 6c] | 0.62 | 1.32 ± 0.09 | 1.49 ± 0.20 | 1.68 ± 0.12 | 0.79 ± 0.007 | 1.19 ± 0.07 | 1.32 ± 0.08 | 1.00 ± 0.01 | 1.11 ± 0.03 | – | – | no activity | no activity | – | – | –
c1ccc2cc(-c3ccnc(N4CCNCC4)n3)ccc2c1 [Compound 7] | – | 1.19 ± 0.05 | 1.42 ± 0.02 | 2.23 ± 0.26 | 1.20 ± 0.06 | – | 1.07 ± 0.10 | – | – | – | 1.10 ± 0.08 | – | – | 17.9 ± 0.55 | – | –
O=c1[nH]c2ccccc2cc1CN1CCN(c2nccc(-c3ccc4ccccc4c3)n2)CC1 [Compound 7a] | 1.25 | 1.38 ± 0.11 | 1.52 ± 0.17 | 1.33 ± 0.11 | 1.02 ± 0.07 | 1.10 ± 0.03 | 1.28 ± 0.12 | – | 0.95 ± 0.02 | – | – | – | – | – | – | –
COc1cc2cc(CN3CCN(c4nccc(-c5ccc6ccccc6c5)n4)CC3)c(=O)[nH]c2cc1OC [Compound 7c] | 0.62 | 1.27 ± 0.04 | 1.29 ± 0.11 | 1.45 ± 0.10 | 1.04 ± 0.03 | 1.24 ± 0.05 | 1.23 ± 0.02 | 1.08 ± 0.05 | 1.22 ± 0.07 | – | – | – | – | 10.2 ± 0.23 | 6.7 ± 0.2 | –
NCCN1CCN(c2nccc(-c3ccc(Cl)cc3)n2)CC1 [Compound 10] | 1.25 | 1.41 ± 0.09 | 1.30 ± 0.05 | 1.72 ± 0.14 | 1.18 ± 0.03 | 1.11 ± 0.03 | 1.26 ± 0.04 | – | 1.06 ± 0.04 | – | 0.98 ± 0.06 | – | – | – | – | –
NCCN1CCN(c2nccc(-c3ccc4ccccc4c3)n2)CC1 [Compound 10a] | 1.25 | 1.30 ± 0.08 | 1.63 ± 0.17 | 2.36 ± 0.25 | 1.26 ± 0.06 | 1.13 ± 0.03 | 1.21 ± 0.02 | – | 1.04 ± 0.03 | 0.98 ± 0.01 | 1.13 ± 0.02 | – | – | 17.1 ± 0.95 | 17.7 ± 0.15 | –
COc1cc2cc(COc3nccc(-c4ccc(Cl)cc4)n3)c(=O)[nH]c2cc1OC [Compound 11] | 1.25 | 1.38 ± 0.07 | 1.30 ± 0.07 | 2.87 ± 0.55 | 1.44 ± 0.03 | 1.14 ± 0.02 | 1.23 ± 0.04 | – | 1.02 ± 0.02 | – | 1.01 ± 0.02 | – | – | 10.7 ± 0.15 | 3.8 ± 0.1 | –
COC(=O)c1ccccc1-c1c2ccc(=N)cc-2oc2cc(N)ccc12 [Rhodamine 123, reference compound] | – | – | – | – | – | – | – | – | – | – | – | – | – | – | – | 5.87
COc1cccc2c1C(=O)c1c(O)c3c(c(O)c1C2=O)C[C@@](O)(C(=O)CO)C[C@@H]3O[C@H]1C[C@H](N)[C@H](O)[C@H](C)O1 [doxorubicin, reference compound] | – | – | – | – | – | – | – | – | – | – | – | – | – | 23 ± 5.41 | 0.64 ± 0.13 | –
COc1ccc(CCN(C)CCCC(C#N)(c2ccc(OC)c(OC)c2)C(C)C)cc1OC (stereo not drawn) [verapamil, reference compound] | – | – | – | – | 1.08 ± 0.05 | – | – | – | – | – | – | – | – | – | – | –
